The NIST ThermoML archive (doi:10.1007/s10765-005-5570-x)

Assay: xn = mol fraction of the nth substance listed
Details: Liquid

ClCBr [bromochloromethane] + CCOC(C)=O
Details	mass density [kg/m3]
288.15 K, 101.33 kPa, x1 = 0.0961	976.08
288.15 K, 101.33 kPa, x1 = 0.2333	1083.23
288.15 K, 101.33 kPa, x1 = 0.3083	1145.77
288.15 K, 101.33 kPa, x1 = 0.4015	1228.4
288.15 K, 101.33 kPa, x1 = 0.5004	1322.97
288.15 K, 101.33 kPa, x1 = 0.604	1430.45
288.15 K, 101.33 kPa, x1 = 0.7004	1538.94
288.15 K, 101.33 kPa, x1 = 0.7987	1659.96
288.15 K, 101.33 kPa, x1 = 0.9032	1800.66
288.15 K, 101.33 kPa, x1 = 1	1945.94
298.15 K, 101.33 kPa, x1 = 0.0961	963.62
298.15 K, 101.33 kPa, x1 = 0.2333	1069.74
298.15 K, 101.33 kPa, x1 = 0.3083	1131.77
298.15 K, 101.33 kPa, x1 = 0.4015	1213.84
298.15 K, 101.33 kPa, x1 = 0.5004	1308.02
298.15 K, 101.33 kPa, x1 = 0.604	1414.77
298.15 K, 101.33 kPa, x1 = 0.7004	1522.14
298.15 K, 101.33 kPa, x1 = 0.7987	1641.51
298.15 K, 101.33 kPa, x1 = 0.9032	1780.71
298.15 K, 101.33 kPa, x1 = 1	1924.88
298.15 K, 200 kPa, x1 = 0.2995	1118.5
298.15 K, 200 kPa, x1 = 0.5013	1299.53
298.15 K, 200 kPa, x1 = 0.6994	1514.36
298.15 K, 600 kPa, x1 = 0.2995	1119.03
298.15 K, 600 kPa, x1 = 0.5013	1300.17
298.15 K, 700 kPa, x1 = 0.6994	1515.04
298.15 K, 1100 kPa, x1 = 0.2995	1119.69
298.15 K, 1200 kPa, x1 = 0.5013	1300.97
298.15 K, 1200 kPa, x1 = 0.6994	1515.77
298.15 K, 1900 kPa, x1 = 0.6994	1516.63
298.15 K, 2000 kPa, x1 = 0.2995	1120.79
298.15 K, 2100 kPa, x1 = 0.5013	1301.96
298.15 K, 3000 kPa, x1 = 0.5013	1303.21
298.15 K, 3100 kPa, x1 = 0.2995	1121.97
298.15 K, 3100 kPa, x1 = 0.6994	1518.35
298.15 K, 4000 kPa, x1 = 0.2995	1123.04
298.15 K, 4000 kPa, x1 = 0.5013	1304.49
298.15 K, 4000 kPa, x1 = 0.6994	1519.64
298.15 K, 4900 kPa, x1 = 0.5013	1305.64
298.15 K, 5100 kPa, x1 = 0.2995	1124.32
298.15 K, 5100 kPa, x1 = 0.6994	1521.08
298.15 K, 5800 kPa, x1 = 0.6994	1522.03
298.15 K, 6000 kPa, x1 = 0.5013	1306.93
298.15 K, 6100 kPa, x1 = 0.2995	1125.53
298.15 K, 6800 kPa, x1 = 0.6994	1523.33
298.15 K, 6900 kPa, x1 = 0.2995	1126.38
298.15 K, 7000 kPa, x1 = 0.5013	1308.07
298.15 K, 7800 kPa, x1 = 0.5013	1309.22
298.15 K, 7900 kPa, x1 = 0.2995	1127.44
298.15 K, 7900 kPa, x1 = 0.6994	1524.7
298.15 K, 8700 kPa, x1 = 0.6994	1525.86
298.15 K, 8800 kPa, x1 = 0.5013	1310.44
298.15 K, 9000 kPa, x1 = 0.2995	1128.74
298.15 K, 9800 kPa, x1 = 0.5013	1311.74
298.15 K, 9800 kPa, x1 = 0.6994	1527.42
298.15 K, 9900 kPa, x1 = 0.2995	1129.86
298.15 K, 11800 kPa, x1 = 0.2995	1131.84
298.15 K, 11900 kPa, x1 = 0.6994	1530.29
298.15 K, 12100 kPa, x1 = 0.5013	1314.57
298.15 K, 13800 kPa, x1 = 0.2995	1134.16
298.15 K, 13800 kPa, x1 = 0.6994	1532.98
298.15 K, 13900 kPa, x1 = 0.5013	1316.83
298.15 K, 15700 kPa, x1 = 0.2995	1136.18
298.15 K, 15900 kPa, x1 = 0.5013	1319.23
298.15 K, 15900 kPa, x1 = 0.6994	1535.7
298.15 K, 17600 kPa, x1 = 0.5013	1321.38
298.15 K, 17700 kPa, x1 = 0.2995	1138.39
298.15 K, 17700 kPa, x1 = 0.6994	1538.2
298.15 K, 19200 kPa, x1 = 0.6994	1540.32
298.15 K, 19400 kPa, x1 = 0.6994	1540.59
298.15 K, 19900 kPa, x1 = 0.5013	1324.19
298.15 K, 20000 kPa, x1 = 0.2995	1140.92
308.15 K, 101.33 kPa, x1 = 0.0961	949.99
308.15 K, 101.33 kPa, x1 = 0.2333	1054.79
308.15 K, 101.33 kPa, x1 = 0.3083	1116.41
308.15 K, 101.33 kPa, x1 = 0.4015	1197.33
308.15 K, 101.33 kPa, x1 = 0.5004	1290.38
308.15 K, 101.33 kPa, x1 = 0.604	1396.09
308.15 K, 101.33 kPa, x1 = 0.7004	1502.46
308.15 K, 101.33 kPa, x1 = 0.7987	1620.66
308.15 K, 101.33 kPa, x1 = 0.9032	1758.33
308.15 K, 101.33 kPa, x1 = 1	1900.86

BrCBr [dibromomethane] + CCOC(C)=O
Details	mass density [kg/m3]
288.15 K, 101.33 kPa, x1 = 0.0522	966.58
288.15 K, 101.33 kPa, x1 = 0.2014	1147.77
288.15 K, 101.33 kPa, x1 = 0.3006	1277.79
288.15 K, 101.33 kPa, x1 = 0.4028	1419.89
288.15 K, 101.33 kPa, x1 = 0.4852	1542.09
288.15 K, 101.33 kPa, x1 = 0.6012	1725.96
288.15 K, 101.33 kPa, x1 = 0.7001	1895.61
288.15 K, 101.33 kPa, x1 = 0.8077	2095.3
288.15 K, 101.33 kPa, x1 = 0.8997	2281.45
288.15 K, 101.33 kPa, x1 = 1	2501.88
298.15 K, 101.33 kPa, x1 = 0.0522	954.36
298.15 K, 101.33 kPa, x1 = 0.2014	1133.83
298.15 K, 101.33 kPa, x1 = 0.3006	1262.61
298.15 K, 101.33 kPa, x1 = 0.4028	1404.06
298.15 K, 101.33 kPa, x1 = 0.4852	1525
298.15 K, 101.33 kPa, x1 = 0.6012	1707.9
298.15 K, 101.33 kPa, x1 = 0.7001	1876.1
298.15 K, 101.33 kPa, x1 = 0.8077	2074.59
298.15 K, 101.33 kPa, x1 = 0.8997	2259.57
298.15 K, 101.33 kPa, x1 = 1	2478.37
298.15 K, 200 kPa, x1 = 0.2995	1260.2
298.15 K, 200 kPa, x1 = 0.5013	1549.45
298.15 K, 200 kPa, x1 = 0.6994	1874.05
298.15 K, 500 kPa, x1 = 0.2995	1260.63
298.15 K, 600 kPa, x1 = 0.5013	1550.03
298.15 K, 600 kPa, x1 = 0.6994	1874.73
298.15 K, 1100 kPa, x1 = 0.2995	1261.34
298.15 K, 1100 kPa, x1 = 0.5013	1550.84
298.15 K, 1200 kPa, x1 = 0.6994	1875.51
298.15 K, 1900 kPa, x1 = 0.5013	1551.83
298.15 K, 2100 kPa, x1 = 0.2995	1262.47
298.15 K, 2200 kPa, x1 = 0.6994	1876.85
298.15 K, 2900 kPa, x1 = 0.2995	1263.67
298.15 K, 2900 kPa, x1 = 0.5013	1553.29
298.15 K, 2900 kPa, x1 = 0.6994	1878.02
298.15 K, 3700 kPa, x1 = 0.2995	1264.58
298.15 K, 3900 kPa, x1 = 0.5013	1554.65
298.15 K, 4200 kPa, x1 = 0.6994	1879.75
298.15 K, 4700 kPa, x1 = 0.5013	1555.68
298.15 K, 4800 kPa, x1 = 0.2995	1265.79
298.15 K, 5200 kPa, x1 = 0.6994	1881.21
298.15 K, 5900 kPa, x1 = 0.2995	1267.24
298.15 K, 6000 kPa, x1 = 0.5013	1557.43
298.15 K, 6000 kPa, x1 = 0.6994	1882.25
298.15 K, 6700 kPa, x1 = 0.5013	1558.4
298.15 K, 6800 kPa, x1 = 0.2995	1268.29
298.15 K, 7000 kPa, x1 = 0.6994	1883.78
298.15 K, 7900 kPa, x1 = 0.5013	1560
298.15 K, 8000 kPa, x1 = 0.2995	1269.58
298.15 K, 8100 kPa, x1 = 0.6994	1885.33
298.15 K, 8600 kPa, x1 = 0.5013	1561.02
298.15 K, 8900 kPa, x1 = 0.2995	1270.84
298.15 K, 9100 kPa, x1 = 0.6994	1887
298.15 K, 9800 kPa, x1 = 0.2995	1271.89
298.15 K, 10000 kPa, x1 = 0.5013	1562.92
298.15 K, 10000 kPa, x1 = 0.6994	1888.23
298.15 K, 10400 kPa, x1 = 0.6994	1888.73
298.15 K, 12000 kPa, x1 = 0.5013	1565.67
298.15 K, 12100 kPa, x1 = 0.2995	1274.55
298.15 K, 12300 kPa, x1 = 0.6994	1891.62
298.15 K, 13800 kPa, x1 = 0.5013	1568.24
298.15 K, 14000 kPa, x1 = 0.2995	1276.89
298.15 K, 14000 kPa, x1 = 0.6994	1894.37
298.15 K, 15800 kPa, x1 = 0.2995	1278.96
298.15 K, 15800 kPa, x1 = 0.5013	1570.87
298.15 K, 15900 kPa, x1 = 0.6994	1897.08
298.15 K, 17600 kPa, x1 = 0.5013	1573.34
298.15 K, 17800 kPa, x1 = 0.6994	1900.02
298.15 K, 17900 kPa, x1 = 0.2995	1281.5
298.15 K, 19800 kPa, x1 = 0.5013	1576.4
298.15 K, 19800 kPa, x1 = 0.6994	1903.09
298.15 K, 20100 kPa, x1 = 0.2995	1284.19
308.15 K, 101.33 kPa, x1 = 0.0522	940.97
308.15 K, 101.33 kPa, x1 = 0.2014	1118.5
308.15 K, 101.33 kPa, x1 = 0.3006	1245.98
308.15 K, 101.33 kPa, x1 = 0.4028	1385.7
308.15 K, 101.33 kPa, x1 = 0.4852	1505.67
308.15 K, 101.33 kPa, x1 = 0.6012	1686.98
308.15 K, 101.33 kPa, x1 = 0.7001	1854.24
308.15 K, 101.33 kPa, x1 = 0.8077	2050.67
308.15 K, 101.33 kPa, x1 = 0.8997	2234.29
308.15 K, 101.33 kPa, x1 = 1	2451.74
